From patent US20250049737A1, “Lauflumide and derivatives thereof for treating chronic fatigue syndrome and myalgic encephalomyelitis/chronic fatigue syndrome (ME/CFS)” (NLS Pharmaceutics AG, priority 2021, published 2025)
Entries after “also recorded” stand apart in the source; their conditions may differ.

Columns and labels:
[1] = molecular target: T1, DAT (h) (antagonist radioligand) (Homo sapiens, UniProt Q01959); test: Radioligand binding panel (Eurofins CEREP), DAT; conditions: % inhibition of control specific binding
T1 construct: Eurofins CEREP (contract study 100014859)
T1 sequence (Q01959 whole entry): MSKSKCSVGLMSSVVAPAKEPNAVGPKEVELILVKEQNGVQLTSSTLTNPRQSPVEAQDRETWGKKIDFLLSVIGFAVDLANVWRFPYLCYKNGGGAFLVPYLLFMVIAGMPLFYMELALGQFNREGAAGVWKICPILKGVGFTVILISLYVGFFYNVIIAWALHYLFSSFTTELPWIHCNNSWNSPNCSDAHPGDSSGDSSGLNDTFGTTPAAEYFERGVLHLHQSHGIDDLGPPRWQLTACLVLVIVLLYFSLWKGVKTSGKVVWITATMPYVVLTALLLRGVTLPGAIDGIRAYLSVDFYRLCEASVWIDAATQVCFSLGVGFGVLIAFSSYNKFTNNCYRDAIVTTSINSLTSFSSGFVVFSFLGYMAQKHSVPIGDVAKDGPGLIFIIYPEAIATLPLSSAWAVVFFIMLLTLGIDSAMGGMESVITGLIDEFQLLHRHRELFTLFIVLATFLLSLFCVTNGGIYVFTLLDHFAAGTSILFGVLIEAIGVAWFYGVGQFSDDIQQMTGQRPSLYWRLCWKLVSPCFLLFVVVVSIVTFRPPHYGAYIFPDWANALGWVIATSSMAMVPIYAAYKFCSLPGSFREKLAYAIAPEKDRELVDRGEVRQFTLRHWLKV
Method: Lauflumide is tested at 10^-5 M, calculated as a % inhibition of control specific binding of a radioactively labeled ligand specific for each target.
This binding profile panel was broadly defined with roughly an equal number of selective, central and peripheral therapeutically relevant targets, including native animal tissues, radioligands and specific enzymes involved in cell cycle regulation in accordance with Eurofins Standard Operating Procedure (www.eurofins.fr).
For radioligand binding experiments, the half maximal inhibitory concentration (IC50) and the half maximal effective concentration (EC50) values were determined (via computer software) by nonlinear regression analysis of the competition curves using Hill equation curve fitting. The inhibition constants (Ki) were calculated using the Cheng-Prusoff equation (Ki=IC50/(1+(L/KD)), where L is the concentration of radioligand in the assay, and KD is the affinity of the radioligand for the receptor.
The results are expressed as a % control specific binding ([measured specific binding/control specific binding]×100) and as a % inhibition of control specific binding (100−[(measured specific binding/control specific binding)×100]) obtained in the presence of the test compounds. […]

[2] = Body weight during fatigue procedure and test period; type: in vivo, Rats, Sprague-Dawley; conditions: test period
Method: FIG. 26 Body weight (in g; mean, SEM) before the beginning and during the fatigue procedure (F-D1-7) and during the test period (T-D1-D3+24 h).
Animals were weighed every day.
(§1) After the end of the Fatigue procedure, animals were divided into 10 groups which received before tests (total: 3 administrations) a per-os (p.o., oral gavage) administration of: • Sham (no fatigue) group (N=12): Vehicle. • Control group (N=11): Vehicle. • Modafinil 32 (N=10): modafinil (32 mg/kg). • Modafinil 64 (N=10): modafinil (64 mg/kg). • Modafinil 128 (N=5): modafinil (128 mg/kg). • NLS-4 16 (N=5): NLS-4 (16 mg/kg). • NLS-4 32 (N=10): NLS-4 (32 mg/kg). • NLS-4 64 (N=10): NLS-4 (64 mg/kg). • NLS-4 128 (N=10): NLS-4 (128 mg/kg). • NLS-4 256 (N=5): NLS-4 (256 mg/kg).

[3] = test system: Rat model of severe fatigue; test: Rat model of severe fatigue (sleep deprivation): recording of circadian locomotor activity; type: in vivo, Rats, Sprague-Dawley; conditions: for Period after administration during which the distance travelled was dramatically increased: 2-h period analysis; for Distance travelled during the 12-h dark phase / Total distance travelled during the full 24-h period / Difference of distance travelled between the dark phase and the light phase / Distance travelled during the 12-h light phase: days 1, 2 and 3
Method: In the following example, Lauflumide is also called NLS-4.
Animals are individually housed in transparent polycarbonate cages (1354G Eurostandard Type IV cage, Tecniplast, Italy, 595×380×200 mm, floor area=1820 cm^2) filled with water (23±1° C.) to a height of 1.5 cm. A platform (5 cm height, 6.5 cm diameter) was located at the center of the cage. Animals can stay on the platform in order to stay dry but falls from it when it falls in deep sleep. […] During this period, animals were placed in a modified light/dark cycle with variable durations of the light and dark periods which change every day. This procedure is intended to disrupt the circadian rhythm.
The Sham group was housed in normal condition for the same period under a 12/12 h light/dark cycle.
After the end of the fatigue period, animals were placed in transparent polycarbonate cages (Type E, Iffa Credo, France, 450×300×200 mm, floor area=1032 cm^2), under a 12 h/12 h cycle. Cages were covered with a stainless steel grid in which food and a bottle are placed. A stainless steel removable divider separated food and water. The cages were placed in infrared photobeam detection systems (Acti-track, LSI Leticca, Panlab) allowing to record continuously the distance travelled in the cage. Locomotor activity was recorded continuously for 3 days. The test started at the beginning of the dark phase of the light/dark cycle.
Seventy-six animals were subjected to the fatigue procedure and to the tests as described above. Twelve animals (Sham group) were housed in standard condition.
as §1
Read-out: distance travelled during 24-h periods, 12-h dark and light periods and during 2-h periods.
Data are expressed as mean and standard error of mean (SEM).
Statistical analyses: Student's t test, repeated measure ANOVA.
A difference is considered statistically significant at p≤0.05.

[4] = 16 mg/kg p.o., vs. Control (fatigue) group
[5] = 16 mg/kg p.o., vs. Modafinil 32 group (32 mg/kg)
[6] = 16 mg/kg p.o., vs. Modafinil 64 group (64 mg/kg)
[7] = 16 mg/kg p.o., vs. Sham (no fatigue) group, listed as NLS-4
[8] = 32 mg/kg p.o., vs. Control (fatigue) group
[9] = 32 mg/kg p.o., vs. Sham (no fatigue) group
[10] = 64 mg/kg p.o., vs. Control (fatigue) group
[11] = 64 mg/kg p.o., vs. Sham (no fatigue) group
[12] = 128 mg/kg p.o., vs. Control (fatigue) group
[13] = 128 mg/kg p.o., vs. Sham (no fatigue) group
[14] = 256 mg/kg p.o., vs. Control (fatigue) group
[15] = 256 mg/kg p.o., vs. Sham (no fatigue) group

## NC(=O)C[S@@+]([O-])C(c1ccc(F)cc1)c1ccc(F)cc1 [Lauflumide, 2-[(R)-((bis(4-fluorophenyl)methane)sulfinyl)]acetamide]
[1]
  % Inhibition at 10^−5M: 84.4%
[2]; 16 mg/kg p.o.
  Weight loss induced by the fatigue procedure: not modified
[2]; 32-256 mg/kg p.o.
  Weight loss induced by the fatigue procedure: aggravated
[3]; 16 mg/kg NLS-4 vs. 64 mg/kg modafinil
  Dose reducing the impairment of circadian rhythm, relative to modafinil: four times lower
[3]; 16 mg/kg p.o.
  Increase in locomotor activity compared with modafinil (32 mg/kg): significantly higher
  Increase in locomotor activity compared with modafinil (64 mg/kg): of the same magnitude
  Motor activity during the first 2-h periods following the dosing: increased
  Period after administration during which the distance travelled was dramatically increased: 2 h
[3]; [4]
  Distance travelled during the 12-h dark phase: higher
  Total distance travelled during the full 24-h period: higher
[3]; 16 mg/kg p.o., vs. Control (fatigue) group, listed as NLS-4
  Difference of distance travelled between the dark phase and the light phase: higher or tended to be higher; also recorded: increased
[3]; [5]
  Difference of distance travelled between the dark phase and the light phase: higher than the Modafinil 32 group on days 2 and 3 only
  Distance travelled during the 12-h light phase: higher than the Modafinil 32 group during the dark period on day 3 only and during the light period on day 1 only
  Total distance travelled during the full 24-h period: higher than the Modafinil 32 group on day 3 only
[3]; [6]
  Difference of distance travelled between the dark phase and the light phase: not significantly different
  Distance travelled during the 12-h dark phase: not significantly different
  Distance travelled during the 12-h light phase: not significantly different
  Total distance travelled during the full 24-h period: not significantly different
[3]; 16 mg/kg p.o., vs. Sham (no fatigue) group
  Total distance travelled during the full 24-h period: not significantly different
[3]; [7]
  Difference of distance travelled between the dark phase and the light phase: increased the distance travelled in comparison with the Sham group during day 3 only; also recorded: higher than the Sham group on day 3 only
  Distance travelled during the 12-h dark phase: increased the distance travelled in comparison with the Sham group during the light phase on day 1 and during the dark phase on day 3; also recorded: higher than the Sham group during the dark period on day 3 only
  Distance travelled during the 12-h light phase: increased the distance travelled in comparison with the Sham group during the light phase on day 1 and during the dark phase on day 3; also recorded: higher than the Control group during the light periods on day 1 only
[3]; 32 mg/kg p.o.
  Period after administration during which the distance travelled was dramatically increased: 8 h
[3]; [8]
  Distance travelled during the 12-h dark phase: higher
  Distance travelled during the 12-h light phase: not significantly different
  Total distance travelled during the full 24-h period: higher
[3]; 32 mg/kg p.o., vs. Control (fatigue) group, listed as NLS-4
  Difference of distance travelled between the dark phase and the light phase: higher or tended to be higher; also recorded: increased
[3]; [9]
  Difference of distance travelled between the dark phase and the light phase: increased the distance travelled in comparison with the Sham group during day 3 only
  Distance travelled during the 12-h dark phase: increased the distance travelled in comparison with the Sham group during the light phase on days 1, 2 and 3, and during the dark phase on days 2 and 3
  Distance travelled during the 12-h light phase: increased the distance travelled in comparison with the Sham group during the light phase on days 1, 2 and 3, and during the dark phase on days 2 and 3
  Total distance travelled during the full 24-h period: increased the distance travelled in comparison with the Sham group during days 1, 2 and 3
[3]; [10]
  Distance travelled during the 12-h dark phase: higher
  Distance travelled during the 12-h light phase: higher for the NLS-4 64 group than for the Control group during the dark phase on days 1, 2 and 3 and during the light phase on day 3 only
  Total distance travelled during the full 24-h period: higher
[3]; 64 mg/kg p.o., vs. Control (fatigue) group, listed as NLS-4
  Difference of distance travelled between the dark phase and the light phase: higher or tended to be higher; also recorded: increased
[3]; [11]
  Distance travelled during the 12-h dark phase: increased the distance travelled in comparison with the Sham group during both the dark and light phase on days 1, 2 and 3
  Distance travelled during the 12-h light phase: increased the distance travelled in comparison with the Sham group during both the dark and light phase on days 1, 2 and 3
  Total distance travelled during the full 24-h period: increased the distance travelled in comparison with the Sham group during days 1, 2 and 3
[3]; [12]
  Distance travelled during the 12-h dark phase: higher
  Distance travelled during the 12-h light phase: higher
  Total distance travelled during the full 24-h period: higher
[3]; 128 mg/kg p.o., vs. Control (fatigue) group, listed as NLS-4
  Difference of distance travelled between the dark phase and the light phase: higher or tended to be higher; also recorded: increased
[3]; [13]
  Distance travelled during the 12-h dark phase: increased the distance travelled in comparison with the Sham group during both the dark and light phase on days 1, 2 and 3
  Distance travelled during the 12-h light phase: increased the distance travelled in comparison with the Sham group during both the dark and light phase on days 1, 2 and 3
  Total distance travelled during the full 24-h period: increased the distance travelled in comparison with the Sham group during days 1, 2 and 3
[3]; [14]
  Distance travelled during the 12-h dark phase: higher
  Distance travelled during the 12-h light phase: higher
  Total distance travelled during the full 24-h period: higher
[3]; 256 mg/kg p.o., vs. Control (fatigue) group, listed as NLS-4
  Difference of distance travelled between the dark phase and the light phase: higher or tended to be higher; also recorded: increased
[3]; [15]
  Difference of distance travelled between the dark phase and the light phase: increased the distance travelled in comparison with the Sham group during day 3 only
  Distance travelled during the 12-h dark phase: increased the distance travelled in comparison with the Sham group during both the dark and light phase on days 1, 2 and 3
  Distance travelled during the 12-h light phase: increased the distance travelled in comparison with the Sham group during both the dark and light phase on days 1, 2 and 3
  Total distance travelled during the full 24-h period: increased the distance travelled in comparison with the Sham group during days 1, 2 and 3
[3]; 16-256 mg/kg p.o.
  Distance travelled during the dark phase (2-h period analysis), dose relation: dose-dependently increased
[3]; 64-256 mg/kg p.o.
  Period after administration during which the distance travelled was dramatically increased: 10 h
